# Values joined by “and” are separate entries in the source; they are usually repeats but may differ in a detail not shown here. Equal entries are not always repeated.
# B1: Vibrio furnissii GCS-HD-GYP (enzyme, UniProt A0A0Q2RS25 1-375, looked up)
# chain: MEVAFGSDPGNAIRRWASYLAIDQQTVDALREYYWIMERNIDEVLAFVYDHLSSCPETAQFYQNEQSIVRARGHLRDHLMLYVFRGHFGVDYYNATIRIGQTHQRLGIDFKVYSGAYCIVMSQLARVVYQSLAPNIDNIHRYMSALNRAIFLDLGLATAVYYDTACFELEELAYELNFALAKAGEFRDNETGEHIKRISRMSFELAKALGQPAHWCKMIQIASPLHDVGKIGVPDEILLKPGKLDADEWKLMQQHPAIGGDIIPDNKSELIRMARRISLTHHEKWDGSGYPAGLAGEEIPLEGRIVAICDVFDALLSTRPYKRAWSVAEVVAYLRENRAKHFDPLLLDCFLEHLDSMLHIRHQFEDAAQPETVAD
# notes: GCS-HD-GYP of Vibrio furnissii, gene AMR76_07425, UniProtKB A0A0Q2RS25; molecular mass 43.9 kDa with the C-terminal His6 tag; The synthetic, codon-optimised gene was put into pET-21a (NdeI/XhoI); also called V. furnissii GCS-HD-GYP; AMR76_07425; source: E. coli, purified; not shown: His6, C-terminal, kept
# B2: Vibrio fluvialis GCS-HD-GYP (globin-coupled sensor phosphodiesterase containing an HD-GYP domain) (enzyme, UniProt A0AAX2LUU7 1-375, looked up)
# chain: METAFSSEPESVIRRWASYLVIDQQTLNTLREFYWVMEQNIDDILSHVYAHLSSNRETAHFYQDEQSVKRAKAHQREHMMRYVFRGNFGAEYYNATNRIGKTHHKLGIDFKIYSGAYCIVLSQLAGVVYKVLAPEIGNVQRYMTALNRVIFMDMGLATSVYYDTACLELEELAHELNFALAKAGEFRDNETGEHIKRISRMSFELAKAAGQEPHWCKMIQIASPLHDVGKIGVPDDILLKPGKLDEQEWNVMQQHPAMGGVIIPDNKSELIRMARRISLTHHEKWDGSGYPAGLKGEEIPLEGRIVAICDVFDALLSTRPYKRPWSMEEVGTYLRDNRGKHFDPQLLDIFIENLANMQLIRCQFEDAVSPEIVAD
# notes: GCS-HD-GYP of Vibrio fluvialis, gene AL536_01530, UniProtKB A0A120L350; full-length protein, predicted mass 44.1 kDa with the C-terminal His6 tag; globin domain residues 1-166, HD-GYP domain residues 169-366; Synthetic, codon-optimised gene in pET-21a (NdeI/XhoI); Mostly a dimer, with a minor tetramer peak by SEC; also called V. fluvialis GCS-HD-GYP; AL536_01530; source: E. coli BL21(DE3), …
# How the values were obtained:
# [1] = biological target: T1, GCS-HD-GYP (V. fluvialis) (Vibrio fluvialis, UniProt A0AAX2LUU7); assay: HPLC hydrolysis assay, […] nm; type: biochemical; conditions: 1 mM MnCl2, pH 8.0, 20 °C
# T1 construct: gene AL536_01530; full length, C-terminal His6 tag kept, pET-21a (codon-optimized), E. coli BL21(DE3), heme-reconstituted in crude extract; mainly dimer (85 kDa by SEC)
# V. furnissii GCS-HD-GYP = biological target: T2, V. furnissii GCS-HD-GYP (Vibrio furnissii, UniProt A0A0Q2RS25); assay: HPLC hydrolysis assay, […] nm; type: biochemical; conditions: 1 mM MnCl2, pH 8.0, 20 °C; Fe(III) heme form; optimal conditions of V. fluvialis enzyme
# T2 construct: gene AMR76_07425; full length, C-terminal His6 tag kept, pET-21a (codon-optimized), E. coli host; dimer
# [2] = biological target: the molecule itself; assay: SEC; Superdex 200 Increase 10/300 GL, 50 mM Tris-HCl pH 8.0, 100 mM NaCl; 100 uL of 20 uM protein injected; mass estimated from standard proteins
molecule,measurement,setting,value
Nc1nc2c(ncn2[C@@H]2O[C@H](COP(=O)(O)O[C@H]3[C@@H](O)[C@H](n4cnc5c(=O)[nH]c(N)nc54)O[C@@H]3COP(=O)(O)O)[C@@H](O)[C@H]2O)c(=O)[nH]1 [pGpG],"HPLC hydrolysis assay, 254 nm","[1]; product of c-di-GMP hydrolysis, Fe(III) heme form","conversion of c-di-GMP to a new compound, namely its linearized product pGpG"
Nc1nc2c(ncn2[C@@H]2O[C@@H]3COP(=O)(O)O[C@H]4[C@@H](O)[C@H](n5cnc6c(=O)[nH]c(N)nc65)O[C@@H]4COP(=O)(O)O[C@H]3[C@H]2O)c(=O)[nH]1 [c-di-GMP],"HPLC hydrolysis assay, 254 nm","[1]; 0.1 mM c-di-GMP, Fe(III) or Fe(II)-O2 heme form",The Fe(III) and Fe(II)-O2 complexes of GCS-HD-GYP catalyzed the hydrolysis of c-di-GMP to form pGpG
same,"HPLC hydrolysis assay, 254 nm",V. furnissii GCS-HD-GYP,the specific activity for the PDE activity of the Fe(III) complex of V. furnissii GCS-HD-GYP
B1,stoichiometry N,[2],2
B2,stoichiometry N,[2],2 and 4

# From publication PMC10882959, “Gas-Selective Catalytic Regulation by a Newly Identified Globin-Coupled Sensor Phosphodiesterase Containing an HD-GYP Domain from the Human Pathogen Vibrio fluvialis” (Biochemistry, 2024)
